Structures can show the parent of a compound that is named as a salt.
Molecular target: T1, human NHE3 (Homo sapiens, UniProt P48764)
T1 sequence (P48764 26-834): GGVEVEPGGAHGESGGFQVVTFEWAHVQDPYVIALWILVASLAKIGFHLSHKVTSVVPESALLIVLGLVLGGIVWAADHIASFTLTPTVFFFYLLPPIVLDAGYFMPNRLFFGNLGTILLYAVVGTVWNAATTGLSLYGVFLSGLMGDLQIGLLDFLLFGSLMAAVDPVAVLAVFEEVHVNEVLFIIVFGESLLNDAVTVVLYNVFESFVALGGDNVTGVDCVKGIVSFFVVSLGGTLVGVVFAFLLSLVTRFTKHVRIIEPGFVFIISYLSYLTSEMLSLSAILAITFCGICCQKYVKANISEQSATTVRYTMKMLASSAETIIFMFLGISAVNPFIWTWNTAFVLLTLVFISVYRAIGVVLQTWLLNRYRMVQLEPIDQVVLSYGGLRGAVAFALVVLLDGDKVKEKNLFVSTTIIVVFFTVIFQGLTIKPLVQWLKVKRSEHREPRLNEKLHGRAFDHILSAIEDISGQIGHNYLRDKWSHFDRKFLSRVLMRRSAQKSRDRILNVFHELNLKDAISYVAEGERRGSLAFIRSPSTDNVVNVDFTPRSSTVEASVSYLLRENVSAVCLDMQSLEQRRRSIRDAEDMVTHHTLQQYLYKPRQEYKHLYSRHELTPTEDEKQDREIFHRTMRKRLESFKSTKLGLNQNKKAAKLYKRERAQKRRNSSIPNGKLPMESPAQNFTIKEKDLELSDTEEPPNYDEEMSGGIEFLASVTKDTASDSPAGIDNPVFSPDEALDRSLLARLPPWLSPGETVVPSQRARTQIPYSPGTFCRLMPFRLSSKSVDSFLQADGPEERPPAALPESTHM
Assay: NHE3 inhibition test (recovery of intracellular pH in cell line stably expressing human NHE3)
Assay type: cell-based
Conditions: OK cells deficient in endogenous NHE stably expressing human NHE3; BCECF fluorescence, initial rate of pH recovery; read-out: human NHE3 inhibitory activity IC50
Procedure, shortened: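 Opossum kidney cells lacking endogenous NHE, stably expressing human NHE3, loaded with BCECF-AM and acid-loaded by NH4Cl washout. Compound in Na-free buffer, then Na-containing buffer (pH 7.4) added; initial pH-recovery rate by BCECF fluorescence, IC50 versus no-compound recovery.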

Compound	IC50 [µM]
CN1Cc2c(Cl)cc(Cl)cc2[C@H](c2cccc(-c3cccnn3)c2)C1 [Example 1-20, (4S)-6,8-Dichloro-2-methyl-4-[3-(pyridazin-3-yl)phenyl]-1,2,3,4-tetrahydroisoquinoline hydrochloride]	0.208
Cc1cc(-c2cccc([C@@H]3CN(C)Cc4c(Cl)cc(Cl)cc43)c2)sn1 [Example 1-19, (4S)-6,8-Dichloro-2-methyl-4-[3-(3-methyl-1,2-thiazol-5-yl)phenyl]-1,2,3,4-tetrahydroisoquinoline hydrochloride]	0.856
CN1Cc2c(Cl)cc(Cl)cc2[C@H](c2cccc(-c3cnc(NCCOCCOCCNC(=O)NCCCCNC(=O)NCCOCCOCCNc4ncc(-c5cccc([C@@H]6CN(C)Cc7c(Cl)cc(Cl)cc76)c5)cn4)nc3)c2)C1 [Example 7-3, 1,1′-Butane-1,4-diylbis {3-[2-(2-{2-[(5-{3-[(4S)-6,8-dichloro-2-methyl-1,2,3,4-tetrahydroisoquinolin-4-yl]phenyl}pyrimidin-2-yl)amino]ethoxy}ethoxy)ethyl]urea}hydrochloride]	0.011
CN1Cc2c(Cl)cc(Cl)cc2[C@H](c2cccc(-c3ccc(NCCOCCOCCNC(=O)NCCCCNC(=O)NCCOCCOCCNc4ccc(-c5cccc([C@@H]6CN(C)Cc7c(Cl)cc(Cl)cc76)c5)cn4)nc3)c2)C1 [Example 7-7, 1,1′-Butane-1,4-diylbis {3-[2-(2-{2-[(5-{3-[(4S)-6,8-dichloro-2-methyl-1,2,3,4-tetrahydroisoquinolin-4-yl]phenyl}pyridin-2-yl)amino]ethoxy}ethoxy)ethyl]urea}]	0.0068
CN1Cc2c(Cl)cc(Cl)cc2[C@H](c2cccc(-c3ccnc(C#N)c3)c2)C1 [Example 1-7, 4-{3-[(4S)-6,8-Dichloro-2-methyl-1,2,3,4-tetrahydroisoquinolin-4-yl]phenyl}pyridine-2-carbonitrile]	0.626
1,3-Bis[14-(4-{3-[(4S)-6,8-dichloro-2-methyl-1,2,3,4-tetrahydroisoquinolin-4-yl]phenyl}-1H-1,2,3-triazol-1-yl)-3,6,9,12-tetraoxatetradec-1-yl]urea hydrochloride [Example 7-44]	0.0076
Cc1cc(-c2cccc([C@@H]3CN(C)Cc4c(Cl)cc(Cl)cc43)c2)cnn1 [Example 1-5, (4S)-6,8-Dichloro-2-methyl-4-[3-(6-methylpyridazin-4-yl)phenyl]-1,2,3,4-tetrahydroisoquinoline trifluoroacetate]	0.0581
Cc1nnc(-c2cccc([C@@H]3CN(C)Cc4c(Cl)cc(Cl)cc43)c2)[nH]1 [Example 3-1, (4S)-6,8-Dichloro-2-methyl-4-[3-(3-methyl-1H-1,2,4-triazol-5-yl)phenyl]-1,2,3,4-tetrahydroisoquinoline hydrochloride]	0.0491
CN1Cc2c(Cl)cc(Cl)cc2[C@H](c2cccc(-c3cn(CCOCCOCCOCCNC(=O)[C@@H](O)[C@H](O)C(=O)NCCOCCOCCOCCn4cc(-c5cccc([C@@H]6CN(C)Cc7c(Cl)cc(Cl)cc76)c5)nn4)nn3)c2)C1 [Example 8-9, (2S,3S)-N,N′-Bis[2-(2-{2-[2-(4-{3-[(4S)-6,8-dichloro-2-methyl-1,2,3,4-tetrahydroisoquinolin-4-yl]phenyl}-1H-1,2,3-triazol-1-yl)ethoxy]ethoxy}ethoxy)ethyl]-2,3-dihydroxybutanediamide hydrochloride]	0.0036
CN1Cc2c(Cl)cc(Cl)cc2[C@H](c2cccc(-c3ccc(NCCOCCOCCOCCNC(=O)NCCCCNC(=O)NCCOCCOCCOCCNc4ccc(-c5cccc([C@@H]6CN(C)Cc7c(Cl)cc(Cl)cc76)c5)cn4)nc3)c2)C1 [Example 7-17, 1,1′-Butane-1,4-diylbis(3-{2-[2-(2-{2-[(5-{3-[(4S)-6,8-dichloro-2-methyl-1,2,3,4-tetrahydroisoquinolin-4-yl]phenyl}pyridin-2-yl)amino]ethoxy}ethoxy)ethoxy]ethyl}urea) hydrochloride]	0.0044

From US9932331B2, “Phenyl tetrahydroisoquinoline compound substituted with heteroaryl” (TAISHO PHARMACEUTICAL CO., LTD, priority 2014, dated 2018)
